Literature values in PMC6831561, “Pharmacological and Behavioral Effects of the Synthetic Cannabinoid AKB48 in Rats” (Frontiers in Neuroscience, 2019).
Read-outs that look alike come from different tables or passages of the source.

Test system: extracellular DA levels
Settings: ref De Luca et al., 2015, cited from earlier work

Compound: CCCCCn1cc(C(=O)c2cccc3ccccc23)c2ccccc21 [JWH-018, Naphthalen-1-yl-(1-pentylindol-3-yl)methanone]
- max increase of DA in the NAc shell (JWH-018 0.25 mg/kg ip, from 20 to 70 min, Miliano et al., 2016): about 60%
- DA release in the NAc shell (JWH-018 0.25 mg/kg): increased DA release
- DA release in the NAc shell (JWH-018 high doses (1 and 3 mg/kg)): no effect
- DA release in the NAc shell (JWH-018 lower (0.125 mg/kg) and higher (0.50 mg/kg) doses): ineffective
